biological target: T1, PRMT1 (Homo sapiens, UniProt Q99873); experiment: PRMT1 Biochemical Assay (3H-SAM Flashplate, peptide substrate); conditions: 30 min preincubation, room temperature
T1 construct: GST-tagged PRMT1; made in house; host or cells: High Five insect cells (baculovirus)
Excerpt: S-adenosylmethionine (SAM), S-adenosylhomocysteine (SAH), bicine, Tween20, dimethylsulfoxide (DMSO), bovine skin gelatin (BSG), and Tris(2-carboxyethyl)phosphine hydrochloride solution (TCEP) were purchased from Sigma-Aldrich at the highest level of purity possible. ^3H-SAM was purchase from American Radiolabeled Chemicals with a specific activity of 80 Ci/mmol. 384-well streptavidin Flashplates were purchased from PerkinElmer.
Peptide representative of human histone H4 residues 36-50 was synthesized with an N-terminal linker-affinity tag motif and a C-terminal amide cap by 21st Century Biochemicals. The peptide was purified by high-performance liquid chromatography (HPLC) to greater than 95% purity and confirmed by liquid chromatography mass spectrometry (LC-MS). The sequence was Biot-Ahx-[…]-amide (SEQ ID NO.: 1).
Full-length human PRMT1 isoform 1 (NM_001536.5) transcript clone was amplified from an HEK 293 cDNA library, incorporating flanking 5′ sequence encoding a FLAG tag ([…]) (SEQ ID NO.:2) fused directly to Met 1 of PRMT1. The amplified gene was subcloned into pFastBacI (Life Technologies) modified to encode an N-terminal GST tag and a TEV cleavage sequence ([…] […] […] […]) (SEQ ID NO.:3) fused to Asp of the Flag tag of PRMT1.
Recombinant baculovirus were generated according to Bac-to-Bac kit instructions (Life Technologies). Protein over-expression was accomplished by infecting exponentially growing High Five insect cell culture at 1.5×10^6 cell/ml with 1:100 ratio of virus. Infections were carried out at 27° C. for 48 hours, harvested by centrifugation, and stored at −80° C. for purification.
General Procedure for PRMT1 Enzyme Assays on Peptide Substrates.
The assays were all performed in a buffer consisting of 20 mM Bicine (pH=7.6), 1 mM TCEP, 0.005% BSG, and 0.002% Tween 20, prepared on the day of use. Compounds in 100% DMSO (1 ul) were spotted into a polypropylene 384-well V-bottom plates (Greiner) using a Platemate Plus outfitted with a 384-channel head (Thermo Scientific). DMSO (1 ul) was added to Columns 11, 12, 23, 24, rows A-H for the maximum signal control and 1 ul of SAH, a known product and inhibitor of PRMT1, was added to columns 11, 12, 23, 24, rows I-P for the minimum signal control. A cocktail (40 ul) containing the PRMT1 enzyme was added by Multidrop Combi (Thermo-Fisher). The compounds were allowed to incubate with PRMT1 for 30 min at room temperature, then a cocktail (10 ul) containing SAM and peptide was added to initiate the reaction (final volume=51 ul). The final concentrations of the components were as follows: PRMT1 was 0.5 nM, ^3H-SAM was 200 nM, non-radiolabeled SAM was 1.5 uM, peptide was 20 nM, SAH in the minimum signal control wells was 1 mM, and the DMSO concentration was 2%. The assays were stopped by the addition of non-radiolabeled SAM (10 ul) to a final concentration of 300 uM, which dilutes the ^3H-SAM to a level where its incorporation into the peptide substrate is no longer detectable. 50 ul of the reaction in the 384-well polypropylene plate was then transferred to a 384-well Flashplate and the biotinylated peptides were allowed to bind to the streptavidin surface for at least 1 hour before being washed once with 0.1% Tween20 in a Biotek ELx405 plate washer. The plates were then read in a PerkinElmer TopCount plate reader to measure the quantity of ^3H-labeled peptide bound to the Flashplate surface, measured as disintegrations per minute (dpm) or alternatively, referred to as counts per minute (cpm).
Where dpm=disintegrations per minute, cmpd=signal in assay well, and min and max are the respective minimum and maximum signal controls.
Where top and bottom are the normally allowed to float, but may be fixed at 100 or 0 respectively in a 3-parameter fit. The Hill Coefficient normally allowed to float but may also be fixed at 1 in a 3-parameter fit. Y is the % inhibition and X is the compound concentration.

T1 sequence (Q99873 with tags, fused parts or gaps): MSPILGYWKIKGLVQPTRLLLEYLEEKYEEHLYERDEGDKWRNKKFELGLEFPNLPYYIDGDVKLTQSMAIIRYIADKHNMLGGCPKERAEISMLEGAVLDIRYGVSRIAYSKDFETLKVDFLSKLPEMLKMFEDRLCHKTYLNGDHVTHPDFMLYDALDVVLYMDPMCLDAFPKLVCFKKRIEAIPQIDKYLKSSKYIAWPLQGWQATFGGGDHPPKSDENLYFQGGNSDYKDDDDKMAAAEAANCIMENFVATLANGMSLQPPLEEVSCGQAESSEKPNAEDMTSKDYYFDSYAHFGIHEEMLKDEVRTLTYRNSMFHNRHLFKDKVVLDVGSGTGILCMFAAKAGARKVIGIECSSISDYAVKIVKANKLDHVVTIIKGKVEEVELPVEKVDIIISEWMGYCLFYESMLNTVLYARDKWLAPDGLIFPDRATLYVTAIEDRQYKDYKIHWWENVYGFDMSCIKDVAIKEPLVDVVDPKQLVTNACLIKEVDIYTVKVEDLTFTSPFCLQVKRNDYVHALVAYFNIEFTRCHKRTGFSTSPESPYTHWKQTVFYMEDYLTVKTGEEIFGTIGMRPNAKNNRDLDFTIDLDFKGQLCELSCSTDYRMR

`CN(CCN)Cc1c[nH]nc1-c1ccsc1` [Compound 3] and `CN(CCN)Cc1c[nH]nc1-c1cccs1` [Compound 5] fall in the same range of IC50: 0.101 to 1 µM for the first, 0.101 to 1 µM for the second.

`CN(CCN)Cc1c[nH]nc1-c1cncnc1` [Compound 4] and `CN(CCN)Cc1c[nH]nc1-c1ccoc1` [Compound 7] fall in the same range of IC50: 0.101 to 1 µM for the first, 0.101 to 1 µM for the second.

Compared with `CN(CCN)Cc1c[nH]nc1-c1ccco1` [Compound 6], `CN(CCN)Cc1c[nH]nc1-c1ccc[nH]1` [Compound 29] is higher in IC50: 0.101 to 1 µM for the first, 1.01 to 3 µM for the second.

First: CN(CCN)Cc1c[nH]nc1-c1cnn(C)c1 [Compound 8]
Second: CCn1cc(-c2n[nH]cc2CN(C)CCN)cn1 [Compound 16]
The IC50 of the first is higher: 0.101 to 1 µM for the first, no more than 0.1 µM for the second. The second is the more potent here.

`CN(CCN)Cc1c[nH]nc1-c1ccc2scnc2c1` [Compound 9] and `CN(CCN)Cc1c[nH]nc1-c1ccc2[nH]ncc2c1` [Compound 27, N^1-((3-(1H-indazol-5-yl)-1H-pyrazol-4-yl)methyl)-N^1-methylethane-1,2-diamine] cannot be ordered by IC50: no more than 0.1 µM for the first, no more than 0.1 µM for the second.

`Cc1noc(C)c1-c1n[nH]cc1CN(C)CCN` [Compound 10] and `Cc1n[nH]c(C)c1-c1n[nH]cc1CN(C)CCN` [Compound 25] cannot be ordered by IC50: no less than 10 µM for the first, no less than 10 µM for the second.

`COc1ncc(-c2n[nH]cc2CN(C)CCN)cn1` [Compound 11] and `CN(CCN)Cc1c[nH]nc1-c1cnc(C2CC2)nc1` [Compound 28] fall in the same range of IC50: 0.101 to 1 µM for the first, 0.101 to 1 µM for the second.

First: CN(CCN)Cc1c[nH]nc1-c1cn[nH]c1 [Compound 12]
Second: CN(CCN)Cc1c[nH]nc1-c1cc[nH]n1 [Compound 14]
The IC50 of the first is lower: 0.101 to 1 µM for the first, 1.01 to 3 µM for the second.

`CN(CCN)Cc1c[nH]nc1-c1cnc2[nH]ccc2c1` [Compound 13] and `CN(CCN)Cc1c[nH]nc1-c1ccc2cnn(C)c2c1` [Compound 19, N^1-methyl-N^1-((3-(1-methyl-1H-indazol-6-yl)-1H-pyrazol-4-yl)methyl)ethane-1,2-diamine] cannot be ordered by IC50: no more than 0.1 µM for the first, no more than 0.1 µM for the second.

First: CN(CCN)Cc1c[nH]nc1-c1ccnn1C [Compound 15]
Second: CC(C)n1cc(-c2n[nH]cc2CN(C)CCN)cn1 [Compound 22]
The IC50 of the first is higher: 1.01 to 3 µM for the first, no more than 0.1 µM for the second. The second is the more potent here.

`CN(CCN)Cc1c[nH]nc1-c1cnn(-c2ccccc2)c1` [Compound 17] and `CN(CCN)Cc1c[nH]nc1-c1cnn(Cc2ccccc2)c1` [Compound 24, N^1-((1′-benzyl-3,4′-bi(1H-pyrazol)-4-yl)methyl)-N^1-methylethane-1,2-diamine] cannot be ordered by IC50: no more than 0.1 µM for the first, no more than 0.1 µM for the second.

First: CN(CCN)Cc1c[nH]nc1-c1cnn(CCO)c1 [Compound 18]
Second: CC(C)Cn1cc(-c2n[nH]cc2CN(C)CCN)cn1 [Compound 23, N^1-((2′-isobutyl-3,4′-bi(1H-pyrazol)-4-yl)methyl)-N^1-methylethane-1,2-diamine]
The IC50 of the first is higher: 0.101 to 1 µM for the first, no more than 0.1 µM for the second.

`CN(CCN)Cc1c[nH]nc1-c1ccc2ncnn2c1` [Compound 20] and `CN(CCN)Cc1c[nH]nc1-c1ccc2nccn2c1` [Compound 21, N^1-((3-(imidazo[1,2-a]pyridin-6-yl)-1H-pyrazol-4-yl)methyl)-N^1-methylethane-1,2-diamine] cannot be ordered by IC50: no more than 0.1 µM for the first, no more than 0.1 µM for the second.

With `CN(CCN)Cc1c[nH]nc1-c1cccc2[nH]ncc12` [Compound 30] the IC50 was 0.101 to 1 µM.

— patent US9630961B2, “Arginine methyltransferase inhibitors and uses thereof” (Epizyme, Inc., priority 2013, dated 2017)
